# Test results as given in patent US9409952B2, “Peptide-compound cyclization method” (Chugai Seiyaku Kabushiki Kaisha, priority 2011, dated 2016).
# Where two headings read alike, the source gives them in different places. Starred links: 1 amine or outer side, 2 acyl side, 3 side chain; linkers in the order of their positions; H or OH if unused. Positions of bridges follow the written chain, without caps; N, C: chain ends. Non-standard residues stand in square brackets, D forms with d. Residues, ends and D or L forms follow the SMILES beside them. *: point of attachment. NMeF = CN[C@@H](Cc1ccccc1)C(=O)O; NMeGABA = CN(CCCC(=O)[*:2])[*:1]; NMeI = CC[C@H](C)[C@H](NC)C(=O)O; hPhe = N[C@@H](CCc1ccccc1)C(=O)O; NMeβAla = CN(CCC(=O)[*:2])[*:1]; Aoc(2) = CCCCCC[C@H](N)C(=O)O; NMeL = CN[C@@H](CC(C)C)C(=O)O; NMeV = CN[C@H](C(=O)O)C(C)C; NMeA = CN[C@@H](C)C(=O)O; Piperidide = C1CCN(*)CC1; dNMeA = CN[C@H](C)C(=O)O; β3hA = C[C@H](N)CC(=O)O; Sar = CNCC(=O)O; tBu = CC(C)(C)*
# Key:
# [1] = PAMPA (parallel artificial membrane permeability assay); format: in vitro ADME; conditions: PAMPA
# Method in brief: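 Artificial membrane was 10% (w/v) egg lecithin plus 0.5% (w/v) cholesterol in dodecane on a PVDF filter. A 10 mM DMSO stock was added at 0.5% (v/v) to donor buffer (50 mM MOPSO, pH 6.5, 5.0% glycocholic acid). After 18 h at 37 °C, LC/MS or LC/UV gave donor and acceptor levels for Pe.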
# [2] = Metabolic stability in human hepatic microsome; format: in vitro ADME; conditions: microsomes
# [3] = membrane permeation rate (Pe), 50 mM MOPSO buffer pH 6.5 with 5.0% glycocholic acid, 37° C., 18 hours, read-out: iPAMPA Pe
# [4] = pH 7.4, human hepatic microsome, NADPH(+), read-out: CL NADPH(+)
"Papp at 18 hours, 50 µM ([1]; pH 6.5)","microsomal CLint at 1 uM ([2]; human, pH 7.4, CL NADPH(+))",SMILES,"Papp at 18 hours, 50 µM [1, 3]","microsomal CLint at 1 uM [2, 4]"
,,CC[C@H](C)[C@@H]1NC(=O)[C@H](CC(C)C)N(C)C(=O)[C@H](C)NC(=O)[C@H](C)N(C)C(=O)C[C@@H](C(=O)N2CCCCC2)NC(=O)[C@H](C(C)C)N(C)C(=O)[C@H](Cc2ccccc2)N(C)C(=O)[C@H]([C@@H](C)O)NC(=O)[C@H](CC(C)C)N(C)C(=O)[C@H](Cc2ccccc2)NC1=O [DP-173] ([NMeA]A[NMeL]IF[NMeL]T[NMeF][NMeV]D-Piperidide; lactam N-10),58 ×10⁻⁶ cm/s,251 µL/min/mg
26 ×10⁻⁶ cm/s,139 µL/min/mg,CC[C@H](C)[C@@H]1NC(=O)[C@H](CC(C)C)N(C)C(=O)[C@H](C)NC(=O)CCCN(C)C(=O)C[C@H](C)NC(=O)[C@H]([C@@H](C)O)NC(=O)[C@H](Cc2ccccc2)NC(=O)[C@H](C(C)C)N(C)C(=O)[C@H](C)N(C)C(=O)[C@H](Cc2ccccc2)N(C)C1=O [DP-778] (cyclo(A[NMeL]I[NMeF][NMeA][NMeV]FT[β3hA][NMeGABA])),,
,,CCCCCC[C@@H]1NC(=O)[C@H](CC(C)C)N(C)C(=O)CN(C)C(=O)[C@H](CC(C)C)NC(=O)C[C@H](C)NC(=O)[C@H](CC(C)C)N(C)C(=O)[C@H](CC(C)C)N(C)C(=O)[C@H](CC(C)C)N(C)C(=O)[C@@H](C)NC(=O)[C@H](CO)NC(=O)[C@H](CC(C)C)N(C)C1=O [DP-647] (cyclo([Aoc(2)][NMeL]S[dA][NMeL][NMeL][NMeL][β3hA]L[Sar][NMeL])),29 ×10⁻⁶ cm/s,132 µL/min/mg
46 ×10⁻⁶ cm/s,17 µL/min/mg,CC[C@H](C)[C@H]1C(=O)N(C)[C@@H](CC(C)C)C(=O)N[C@@H](C)C(=O)N(C)[C@@H](CC(C)C)C(=O)N(C)[C@@H](Cc2ccccc2)C(=O)N[C@@H]([C@@H](C)O)C(=O)N(C)[C@@H](Cc2ccccc2)C(=O)N(C)[C@@H](CC(C)C)C(=O)N(C)[C@@H](C)C(=O)N[C@@H](C)CC(=O)N[C@H](C(C)C)C(=O)N1C [DP-773] (cyclo(A[NMeL][NMeF]T[NMeF][NMeL][NMeA][β3hA][dV][NMeI][NMeL])),,
,,CC(C)C[C@H]1C(=O)N[C@H](C(=O)N(C)[C@@H](Cc2ccccc2)C(=O)N[C@@H](C)C(=O)N2CCCCC2)CC(=O)N(C)[C@@H](C)C(=O)N(C)[C@@H](C)C(=O)N[C@@H](C(C)C)C(=O)N(C)[C@@H](C)C(=O)N(C)[C@@H](Cc2ccccc2)C(=O)N[C@@H]([C@@H](C)O)C(=O)N(C)CC(=O)N(C)[C@@H](C)C(=O)N1C [DP-349] ([NMeA][NMeA]V[NMeA][NMeF]T[Sar][NMeA][NMeL]D[NMeF]A-Piperidide; lactam N-10),3.9 ×10⁻⁶ cm/s,13 µL/min/mg
,,CC[C@H](C)[C@@H]1NC(=O)[C@H](Cc2ccccc2)NC(=O)[C@@H](C)N(C)C(=O)C[C@@H](C(=O)N2CCCCC2)NC(=O)[C@H](Cc2ccccc2)N(C)C(=O)[C@H](Cc2ccccc2)NC(=O)[C@H](CC(C)C)NC(=O)[C@H]([C@@H](C)O)NC(=O)[C@H](CC(C)C)NC(=O)[C@H](CC(C)C)N(C)C1=O [DP-338] ([dNMeA]FI[NMeL]LTLF[NMeF]D-Piperidide; lactam N-10),4.9 ×10⁻⁶ cm/s,146 µL/min/mg
,,CC[C@H](C)[C@H](NC(=O)[C@H](CC(C)C)N(C)C(=O)[C@H](CC(C)C)NC(=O)[C@H](C)N(C)C(=O)[C@@H]1CC(=O)N[C@H](C(C)C)C(=O)N(C)[C@@H](CC(C)C)C(=O)N(C)[C@@H](CC(C)C)C(=O)N[C@@H](C)C(=O)N[C@@H](Cc2ccccc2)C(=O)N[C@@H]([C@@H](C)O)C(=O)N[C@@H](CC(C)C)C(=O)N(C)[C@@H](Cc2ccccc2)C(=O)N(C)[C@@H](CC(C)C)C(=O)N1)C(=O)N1CCCCC1 [DP-944] ([dV][NMeL][NMeL]AFTL[NMeF][NMeL]D[NMeA]L[NMeL]I-Piperidide; lactam N-10),0.1 ×10⁻⁶ cm/s,20 µL/min/mg
,,CC[C@H](C)[C@@H]1NC(=O)[C@H](CC(C)C)NC(=O)[C@H](C(C)C)NC(=O)[C@H](CC(C)C)N(C)C(=O)[C@H](CC(C)C)NC(=O)[C@H](Cc2ccccc2)NC(=O)[C@H]([C@@H](C)O)NC(=O)[C@H](C)N(C)C(=O)[C@H](CC(C)C)NC(=O)[C@H](C)N(C)C(=O)C[C@@H](C(=O)N2CCCCC2)NC1=O [DP-478] ([NMeA]L[NMeA]TFL[NMeL]VLID-Piperidide; lactam N-11),18 ×10⁻⁶ cm/s,50 µL/min/mg
,,CC(C)[C@@H]1NC(=O)[C@H](C)N(C)C(=O)CNC(=O)[C@H]([C@@H](C)O)NC(=O)[C@H](C(C)C)N(C)C(=O)[C@H](C)NC(=O)[C@@H](C)N(C)C(=O)C[C@@H](C(=O)N(C)[C@@H](Cc2ccccc2)C(=O)N(C)[C@@H](Cc2ccccc2)C(=O)N[C@@H](C)C(=O)N2CCCCC2)NC(=O)[C@H](Cc2ccccc2)N(C)C(=O)[C@H](C)N(C)C1=O [DP-505] ([dNMeA]A[NMeV]TG[NMeA]V[NMeA][NMeF]D[NMeF][NMeF]A-Piperidide; lactam N-10),6.8 ×10⁻⁶ cm/s,18 µL/min/mg
,,CC[C@H](C)[C@H]1C(=O)N(C)[C@@H](CC(C)C)C(=O)N[C@H](C(=O)N2CCCCC2)CC(=O)N(C)CCCC(=O)N[C@@H]([C@@H](C)O)C(=O)N(C)[C@@H](C)C(=O)N(C)[C@@H](Cc2ccccc2)C(=O)N(C)[C@@H](Cc2ccccc2)C(=O)N(C)[C@@H](CC(C)C)C(=O)NCC(=O)N1C [DP-262] ([NMeGABA]T[NMeA][NMeF][NMeF][NMeL]G[NMeI][NMeL]D-Piperidide; lactam N-10),38 ×10⁻⁶ cm/s,94 µL/min/mg
,,CC[C@H](C)[C@@H]1NC(=O)[C@H](CC(C)C)N(C)C(=O)CN(C)C(=O)[C@H]([C@@H](C)O)NC(=O)[C@H](C)N(C)C(=O)[C@H](Cc2ccccc2)NC(=O)[C@H](CC(C)C)N(C)C(=O)[C@H](C)N(C)C(=O)C[C@@H](C(=O)N(C)[C@@H](Cc2ccccc2)C(=O)N(C)[C@@H](Cc2ccccc2)C(=O)N[C@@H](C)C(=O)N2CCCCC2)NC(=O)[C@H](C(C)C)N(C)C1=O [DP-459] ([NMeA][NMeL]F[NMeA]T[Sar][NMeL]I[NMeV]D[NMeF][NMeF]A-Piperidide; lactam N-10),19 ×10⁻⁶ cm/s,143 µL/min/mg
,,CC(C)C[C@H]1C(=O)N[C@H](C(=O)N2CCCCC2)CC(=O)N(C)CCCC(=O)N(C)[C@@H](Cc2ccccc2)C(=O)N[C@@H]([C@@H](C)O)C(=O)N(C)[C@@H](C)C(=O)N[C@@H](COC(C)(C)C)C(=O)N1C [DP-680] ([NMeGABA][NMeF]T[NMeA]S(tBu)[NMeL]D-Piperidide; lactam N-7),15 ×10⁻⁶ cm/s,96 µL/min/mg
,,CC(C)C[C@@H]1NC(=O)[C@H](CC(C)C)N(C)C(=O)[C@H](C)N(C)C(=O)C[C@@H](C(=O)N2CCCCC2)NC(=O)[C@H](CC(C)C)N(C)C(=O)[C@H](Cc2ccccc2)N(C)C(=O)[C@H](Cc2ccccc2)N(C)C(=O)[C@H]([C@@H](C)O)NC(=O)[C@H](Cc2ccccc2)N(C)C1=O [DP-442] ([NMeA][NMeL]L[NMeF]T[NMeF][NMeF][NMeL]D-Piperidide; lactam N-9),38 ×10⁻⁶ cm/s,159 µL/min/mg
,,CC(C)C[C@@H]1NC(=O)[C@H](C(C)C)N(C)C(=O)[C@H](CCc2ccccc2)NC(=O)CN(C)C(=O)[C@H]([C@@H](C)O)NC(=O)[C@H](C)N(C)C(=O)[C@H](CC(C)C)N(C)C(=O)[C@@H](C(C)C)NC(=O)C[C@@H](C(=O)N2CCCCC2)NC(=O)[C@H](C)NC(=O)[C@H](CC(C)C)N(C)C1=O [DP-736] ([dV][NMeL][NMeA]T[Sar][hPhe][NMeV]L[NMeL]AD-Piperidide; lactam N-11),27 ×10⁻⁶ cm/s,47 µL/min/mg
,,CC[C@H](C)[C@H](NC(=O)[C@@H](NC(=O)[C@@H]1CC(=O)N(C)CCC(=O)N[C@@H](Cc2ccccc2)C(=O)N(C)[C@@H](Cc2ccccc2)C(=O)N(C)[C@@H](CC(C)C)C(=O)N[C@@H]([C@@H](C)O)C(=O)N(C)[C@@H](C)C(=O)N(C)[C@@H](CC(C)C)C(=O)N[C@@H](C(C)C)C(=O)N(C)[C@@H](CC(C)C)C(=O)N[C@@H](COC(C)(C)C)C(=O)N(C)[C@@H](CC(C)C)C(=O)N1)C(C)C)C(=O)N1CCCCC1 [DP-954] ([NMeβAla]F[NMeF][NMeL]T[NMeA][NMeL]V[NMeL]S(tBu)[NMeL]DVI-Piperidide; lactam N-12),0.1 ×10⁻⁶ cm/s,26 µL/min/mg
46 ×10⁻⁶ cm/s,97 µL/min/mg,CC(C)C[C@@H]1NC(=O)[C@H](Cc2ccccc2)NC(=O)[C@H](CC(C)C)N(C)C(=O)[C@H](Cc2ccccc2)NC(=O)[C@@H](C)N(C)C(=O)C[C@H](C)NC(=O)[C@H](Cc2ccccc2)N(C)C(=O)CNC(=O)[C@H]([C@@H](C)O)NC(=O)[C@H](CC(C)C)NC1=O [DP-784] (cyclo(FLLTG[NMeF][β3hA][dNMeA]F[NMeL])),,

SMILES,"Papp at 18 hours, 50 µM ([1]; pH 6.5)","microsomal CLint at 1 uM ([2]; human, pH 7.4, CL NADPH(+))","Papp at 18 hours, 50 µM [1, 3]","microsomal CLint at 1 uM [2, 4]"
C=C1CCC(=O)N[C@@H](C)C(=O)N(C)[C@@H](CC(C)C)C(=O)N[C@@H]([C@@H](C)CC)C(=O)N(C)[C@@H](Cc2ccccc2)C(=O)N(C)[C@@H](CC(C)C)C(=O)N(C)[C@@H](C(C)C)C(=O)N[C@@H](Cc2ccccc2)C(=O)N[C@@H]([C@@H](C)O)C(=O)N[C@H](C(=O)N2CCCCC2)Cc2cccc1c2 [DP-846],3.4 ×10⁻⁶ cm/s,310 µL/min/mg,,
CC[C@H](C)[C@@H]1NC(=O)[C@@H](C(C)C)NC(=O)C[C@@H](C(=O)N(C)[C@@H](Cc2ccccc2)C(=O)N[C@@H](C)C(=O)N2CCCCC2)NC(=O)[C@H](Cc2ccccc2)N(C)C(=O)[C@H](C)NC(=O)[C@H](CC(C)C)N(C)C(=O)[C@H](C)N(C)C(=O)[C@H]([C@@H](C)O)NC(=O)[C@H](C)N(C)C(=O)[C@H](C(C)C)N(C)C1=O [DP-294] ([dV]I[NMeV][NMeA]T[NMeA][NMeL]A[NMeF]D[NMeF]A-Piperidide; lactam N-10),17 ×10⁻⁶ cm/s,35 µL/min/mg,,
